{"source": "patent US4713378A", "about": "“Penem derivatives” (Farmitalia Carlo Erba S.p.A., priority 1984, dated 1987)", "type_in_all_cases": "cell-based", "key": {"[1]": {"tested_on": "Streptococcus pyogenes ATCC 12384", "test": "antibacterial in vitro activity (MIC), Streptococcus pyogenes ATCC 12384", "details": "ATCC12384; Streptococcus pyogenes ATCC 12384, in vitro", "description": "(§1) Comparison between the antibacterial in vitro activity\n(§2) (MIC, μg/ml) of compound \"5\" and two reference drugs: […]"}, "[2]": {"tested_on": "Escherichia coli B Cef. R (β-lact.+)", "test": "antibacterial in vitro activity (MIC), Escherichia coli B Cef. R (β-lact.+)", "description": "as §1, §2"}, "[3]": {"tested_on": "Escherichia coli 026:B6 Cef R", "test": "antibacterial in vitro activity (MIC), Escherichia coli 026:B6 Cef R", "description": "as §1, §2"}, "[4]": {"tested_on": "Staphylococcus aureus Smith", "test": "antibacterial in vitro activity (MIC), Staphylococcus aureus Smith", "description": "as §1, §2"}, "[5]": {"tested_on": "Staphylococcus aureus 209 P", "test": "antibacterial in vitro activity (MIC), Staphylococcus aureus 209 P", "description": "as §1, §2"}, "[6]": {"tested_on": "Pseudomonas aeruginosa ATCC 19660", "test": "antibacterial in vitro activity (MIC), Pseudomonas aeruginosa ATCC 19660", "details": "ATCC19660; Pseudomonas aeruginosa ATCC 19660, in vitro", "description": "as §1, §2"}, "[7]": {"tested_on": "Proteus morganii ATCC 25830", "test": "antibacterial in vitro activity (MIC), Proteus morganii ATCC 25830", "details": "Morganella morganii, ATCC25830; Proteus morganii ATCC 25830, in vitro", "description": "as §1, §2"}, "Escherichia coli 026:B6": {"tested_on": "Escherichia coli 026:B6", "test": "antibacterial in vitro activity (MIC), Escherichia coli 026:B6", "details": "Escherichia coli 026:B6, in vitro", "description": "as §1, §2"}, "[8]": {"tested_on": "Klebsiella aerogenes 1082E (β-lact.+)", "test": "antibacterial in vitro activity (MIC), Klebsiella aerogenes 1082E (β-lact.+)", "description": "as §1, §2"}, "[9]": {"tested_on": "Salmonella typhimurium ATCC 14028", "test": "antibacterial in vitro activity (MIC), Salmonella typhimurium ATCC 14028", "details": "Salmonella enterica; Salmonella typhimurium ATCC 14028, in vitro", "description": "as §1, §2"}, "[10]": {"tested_on": "Enterobacter cloacae P 99 (β-lact.+)", "test": "antibacterial in vitro activity (MIC), Enterobacter cloacae P 99 (β-lact.+)", "description": "as §1, §2"}, "Escherichia coli B": {"tested_on": "Escherichia coli B", "test": "antibacterial in vitro activity (MIC), Escherichia coli B", "description": "as §1, §2"}, "[11]": {"tested_on": "Shigella flexneri ATCC 11836", "test": "antibacterial in vitro activity (MIC), Shigella flexneri ATCC 11836", "details": "ATCC11836; Shigella flexneri ATCC 11836, in vitro", "description": "as §1, §2"}, "[12]": {"tested_on": "Citrobacter freundii ATCC 8090", "test": "antibacterial in vitro activity (MIC), Citrobacter freundii ATCC 8090", "details": "ATCC8090; Citrobacter freundii ATCC 8090, in vitro", "description": "as §1, §2"}, "[13]": {"tested_on": "Proteus mirabilis FI 7474", "test": "antibacterial in vitro activity (MIC), Proteus mirabilis FI 7474", "details": "FI7474; Proteus mirabilis FI 7474, in vitro", "description": "as §1, §2"}, "[14]": {"tested_on": "Serratia marcescens ATCC 2902", "test": "antibacterial in vitro activity (MIC), Serratia marcescens ATCC 2902", "details": "ATCC2902; Serratia marcescens ATCC 2902, in vitro", "description": "as §1, §2"}, "[15]": {"tested_on": "Enterobacter cloacae 1321 E", "test": "antibacterial in vitro activity (MIC), Enterobacter cloacae 1321 E", "description": "as §1, §2"}, "[16]": {"details": "Enterobacter cloacae P 99 (β-lact.+), in vitro, read-out: MIC"}, "[17]": {"details": "Staphylococcus aureus 209 P, in vitro, read-out: MIC"}}, "note": "Read-outs that look alike come from different tables or passages of the source.", "data": [{"molecule": "CO/N=C(\\C(=O)N[C@@H]1C(=O)N2C(C(=O)O)=C(COC(C)=O)CS[C@H]12)c1csc(N)n1", "note": "[Cefotaxime]", "values": [{"measurement": "MIC", "setting": "[1]", "result": 0.78, "unit": "mg/L"}, {"measurement": "MIC", "setting": "[2]", "result": 0.19, "unit": "mg/L"}, {"measurement": "MIC", "setting": "[3]", "result": 1.56, "unit": "mg/L"}, {"measurement": "MIC", "setting": "[4]", "result": 0.78, "unit": "mg/L"}, {"measurement": "MIC", "setting": "[5]; Staphylococcus aureus, 209P", "result": 1.56, "unit": "mg/L"}, {"measurement": "MIC", "setting": "[6]", "result": 12, "unit": "mg/L"}, {"measurement": "MIC", "setting": "[7]", "result": 0.011, "unit": "mg/L"}, {"measurement": "MIC", "setting": "Escherichia coli 026:B6", "result": 0.78, "unit": "mg/L"}, {"measurement": "MIC", "setting": "[8]", "result": 3.12, "unit": "mg/L"}, {"measurement": "MIC", "setting": "[9]", "result": 0.045, "unit": "mg/L"}, {"measurement": "MIC", "setting": "[10]; [16]", "result": "> 100", "unit": "mg/L"}, {"measurement": "MIC", "setting": "Escherichia coli B", "result": 0.011, "unit": "mg/L"}, {"measurement": "MIC", "setting": "[11]", "result": 0.023, "unit": "mg/L"}]}, {"molecule": "C[C@@H](O)[C@H]1C(=O)N2C(C(=O)[O-])=C(C[N+]3(C)CCCC3)S[C@H]12", "note": "[Compound 5, (5R,6S)-6-[(1R)-hydroxyethyl]-2-[1-(1-methylpyrrolidinio)]-methylpenem-3-carboxylate]", "values": [{"measurement": "MIC", "setting": "[1]", "result": "< 0.005", "unit": "mg/L"}, {"measurement": "MIC", "setting": "[2]", "result": 0.045, "unit": "mg/L"}, {"measurement": "MIC", "setting": "[4]", "result": "< 0.005", "unit": "mg/L"}, {"measurement": "MIC", "setting": "[5]; [17]", "result": "< 0.005", "unit": "mg/L"}, {"measurement": "MIC", "setting": "[12]", "result": 0.09, "unit": "mg/L"}, {"measurement": "MIC", "setting": "[6]", "result": 25, "unit": "mg/L"}, {"measurement": "MIC", "setting": "[7]", "result": 0.38, "unit": "mg/L"}, {"measurement": "MIC", "setting": "Escherichia coli 026:B6", "result": 0.005, "unit": "mg/L"}, {"measurement": "MIC", "setting": "[13]", "result": 0.19, "unit": "mg/L"}, {"measurement": "MIC", "setting": "[14]", "result": 0.78, "unit": "mg/L"}, {"measurement": "MIC", "setting": "[8]", "result": 0.045, "unit": "mg/L"}, {"measurement": "MIC", "setting": "[9]", "result": 0.045, "unit": "mg/L"}, {"measurement": "MIC", "setting": "[10]; [16]", "result": 0.045, "unit": "mg/L"}, {"measurement": "MIC", "setting": "[15]", "result": 0.045, "unit": "mg/L"}, {"measurement": "MIC", "setting": "Escherichia coli B", "result": 0.045, "unit": "mg/L"}, {"measurement": "MIC", "setting": "[11]", "result": 0.045, "unit": "mg/L"}]}, {"molecule": "CC(=O)OCC1=C(C(=O)O)N2C(=O)[C@H]([C@@H](C)O)[C@H]2S1", "note": "[FCE 21420]", "values": [{"measurement": "MIC", "setting": "[1]", "result": 0.045, "unit": "mg/L"}, {"measurement": "MIC", "setting": "[2]", "result": 0.39, "unit": "mg/L"}, {"measurement": "MIC", "setting": "[3]", "result": 3.12, "unit": "mg/L"}, {"measurement": "MIC", "setting": "[4]", "result": 0.023, "unit": "mg/L"}, {"measurement": "MIC", "setting": "[5]; [17]", "result": 0.045, "unit": "mg/L"}, {"measurement": "MIC", "setting": "[12]", "result": 0.78, "unit": "mg/L"}, {"measurement": "MIC", "setting": "[6]", "result": "> 50", "unit": "mg/L"}, {"measurement": "MIC", "setting": "[7]", "result": 0.78, "unit": "mg/L"}, {"measurement": "MIC", "setting": "[14]", "result": 3.1, "unit": "mg/L"}, {"measurement": "MIC", "setting": "[8]", "result": 0.78, "unit": "mg/L"}, {"measurement": "MIC", "setting": "[9]", "result": 0.39, "unit": "mg/L"}, {"measurement": "MIC", "setting": "[10]; Enterobacter cloacae", "result": 3.12, "unit": "mg/L"}, {"measurement": "MIC", "setting": "[11]", "result": 0.39, "unit": "mg/L"}]}]}
